We go through two compounds from publication PMC11744668, “2-Cyanopyrimidine-Containing Molecules for N-Terminal Selective Cyclization of Phage-Displayed Peptides” (ACS Chemical Biology, 2025).

SMILES strings stand for the structures. Entries after “also recorded” stand apart in the source; their conditions may differ.

Data set [1] can be described thus: Peptide cyclization kinetics with model peptide CGK-5. As to conditions: 500 μM CGK-5, 550 μM linker, RT; for cyclization of CGK-5 (in words): ABC buffer pH 7.4, 1 mM TCEP, 2 h, LC-MS; for half-life of the cyclization reaction with CGK-5: ammonium bicarbonate (ABC) buffer, TCEP, HPLC, one-phase association, mean ± 95% CI, at least three independent experiments. The source says: While pCAmCP and mCAmCP gave efficient cyclization of the peptide fusion of sfGFP, we looked to further investigate the specificity of the reaction using peptide kinetic assays. To do this, we first established reactivity of the compounds with a model peptide (CGK-5, Figures 3A and S16) that was composed of two cysteines flanking a region tuned for solubility in buffer (GGKGG) and with a tryptophan residue on the C-terminus for UV absorbance. […] To test the specificity of the reaction for the N-terminal cysteine, we synthesized a peptide analogue (CGK-5Abu, Figures 3D–F and S17) that contained 2-aminobutyric acid in place of the N-terminal cysteine. […] Since these reactions occurred at 500 μM of peptide to allow for analysis on the HPLC, we envision this difference will likely be exaggerated when using lower peptide/protein concentrations. Although it is unlikely at neutral pH, the chloroacetamide moiety can possibly react with nucleophilic amino acids other than cysteine. To defuse this concern, we designed a peptide containing a variety of possibly nucleophilic residues (serine, arginine, tyrosine, histidine, and lysine, but not an internal cysteine) adjacent to the N-terminal cysteine (BCP, Figure S18) and let the peptide react with pCAmCP or mCAmCP. […] On the other hand, peptides that contained an internal cysteine were nearly completely reacted with the chloroacetamide after less than 2 h at the same concentrations (Figure 3B,C). This indicates high specificity for the chloroacetamide reacting with an internal cysteine in comparison to other nucleophilic residues at pH 7.4. […] It could be that the side reaction with TCEP may help mask the chloroacetamide after long incubation periods to prevent it from reacting with less reactive nucleophiles.
The peptide (CGK-5 or CGK-5Abu, 5 mM stock in water) was diluted to 500 μM in ammonium bicarbonate buffer (50 mM, pH 7.5) containing 1.2 mM TCEP. Following dilution of the peptide, the organic linker (10 mM in DMSO) was added to a final concentration of 550 μM. The reaction mixture was incubated while being shaken at RT. At each time point (5, 10, 15, 30, 45, 60, 120, and 240 min), 5 μL of reaction mixture was removed, and the reaction was quenched by the addition of 5 μL of 100 mM cysteine. Following dilution with 20 μL of water, the sample was then analyzed on a Shimadzu HPLC with an LCMS-2020 mass spectrometer attached (10–40% ACN gradient in H2O over 6 min, 0.1% formic acid, 1 mL/min flow rate, Shimadzu C18 250 × 4.6 mm, 5 μm). Peaks corresponding to the cyclized and unreacted forms were then integrated on the Shimadzu LabSolutions software, plotted in GraphPad Prism, and fitted using a one-phase association fitting parameter to determine reaction half-lives.

Data set [2] is described as follows: Specificity of linker reaction with BCP peptide (nucleophilic residues, no internal cysteine). As to conditions: 500 µM BCP, 550 µM linker, 50 mM NH4HCO3, 1.2 mM TCEP, pH 7.5, 4 h. The source says: While pCAmCP and mCAmCP gave efficient cyclization of the peptide fusion of sfGFP, we looked to further investigate the specificity of the reaction using peptide kinetic assays. To do this, we first established reactivity of the compounds with a model peptide (CGK-5, Figures 3A and S16) that was composed of two cysteines flanking a region tuned for solubility in buffer (GGKGG) and with a tryptophan residue on the C-terminus for UV absorbance. […] To test the specificity of the reaction for the N-terminal cysteine, we synthesized a peptide analogue (CGK-5Abu, Figures 3D–F and S17) that contained 2-aminobutyric acid in place of the N-terminal cysteine. […] Since these reactions occurred at 500 μM of peptide to allow for analysis on the HPLC, we envision this difference will likely be exaggerated when using lower peptide/protein concentrations. Although it is unlikely at neutral pH, the chloroacetamide moiety can possibly react with nucleophilic amino acids other than cysteine. To defuse this concern, we designed a peptide containing a variety of possibly nucleophilic residues (serine, arginine, tyrosine, histidine, and lysine, but not an internal cysteine) adjacent to the N-terminal cysteine (BCP, Figure S18) and let the peptide react with pCAmCP or mCAmCP. […]

The subject of data set [3] is phages (12mer phagemid library). The data set can be described thus: Phage infectivity (toxicity) assay, colony-forming unit assay. As to conditions: 50–200 μM linker, 22 or 37 °C, 3 or 24 h, 1 mM TCEP; cfu assay, n = 3. As for the experimental part:
For all experiments, phages were quantified via a colony-forming unit assay. In this assay, serial dilutions of the phage solution were prepared in 2× YT media, and 10 μL of each dilution was added to 90 μL of log-phase E. coli ER2738. Following the addition of the phage dilutions, the culture was incubated at 37 °C for 45 min, and then 10 μL was spotted in triplicate onto agar selection plates containing either 100 μg/mL ampicillin and 10 μg/mL tetracycline, which were incubated at 37 °C overnight. The following day, colonies in each spot were counted, and this number was used to calculate the number of colony-forming units in the solution.
The purified 12mer phagemid library in binding buffer was incubated with 1 mM TCEP at 37 °C for 30 min. The reduced phages were then reacted with linkers (pCAmCP or mCAmCP) or DMSO equivalents at varying concentrations (50, 100, and 200 μM) and temperatures (22 or 37 °C) for varying times (3 or 24 h). Following incubation under the various conditions, the phage solutions were then titered by using the previously described colony-forming unit assay.

Take `N#Cc1ncc(NC(=O)CCl)cn1` [pCAmCP, 2-chloro-N-(2-cyanopyrimidin-5-yl)acetamide]: in data set [1], the “cyclization of CGK-5 (in words)” value is on record as “nearly complete cyclization of the peptide after 2 h” and the “half-life of the cyclization reaction with CGK-5” value worked out at 23 ± 5 min. Besides, the “specificity of chloroacetamide toward nucleophilic residues other than cysteine (in words)” value in data set [2] is listed as “the chloroacetamide was left intact, with the only observed side reaction being the addition of TCEP to the chloroacetamide”. The “phage toxicity (in words)” value in data set [3] is on record as “No toxicity was observed under any of the conditions tested; also recorded: without hindering infection”.
Consider `N#Cc1nccc(NC(=O)CCl)n1` [mCAmCP, 2-chloro-N-(2-cyanopyrimidin-4-yl)acetamide], for which, in data set [1], the “cyclization of CGK-5 (in words)” value is “nearly complete cyclization of the peptide after 2 h” and the “half-life of the cyclization reaction with CGK-5” value was 13 ± 3 min. Moreover, the “specificity of chloroacetamide toward nucleophilic residues other than cysteine (in words)” value in data set [2] is recorded as “the chloroacetamide was left intact, with the only observed side reaction being the addition of TCEP to the chloroacetamide”. Moreover, the “phage toxicity (in words)” value in data set [3] is reported as “No toxicity was observed under any of the conditions tested; also recorded: without hindering infection”.
